Source: patent publication US6680199B1, “In vitro activation of mammalian oocytes” (Infigen, Inc., priority 1993, dated 2004)
Marks after values point to notes of the source that are not given here.

What was measured:
[1] = test system: bovine oocytes matured for 24 hours; assay: Parthenogenic activation of in vitro matured bovine oocytes (activation, pronuclear formation); assay type: cell-based; settings: for Activation of oocytes, result in words / Chromosome / pronuclear outcome, result in words: Experiment 1, 5 hours of culture, FIG. 1b-1d; for % Activation / % Pronuclear formation: oocytes matured 24 h, ionomycin 5 μM 4 min and/or DMAP for 5 hours, determined after 5 hours of culture
Experimental: Bovine oocytes were obtained at an abattoir and transported to the laboratory in saline (30-34° C., transport time 2-6 hr). Oocytes from small follicles (1-6 mm) were aspirated and matured according to the methods described in Sirard et al., 1988. Briefly, oocytes were diluted out of the follicular fluid with 3 dilutions of TL HEPES modified by removing glucose, adding 0.22 mM pyruvate and 1 mg/ml of BSA (Fraction V, Sigma Chemical CO, St. Louis, Mo.).
The oocytes were placed in 50 μl drops of TCM-199 (Earle's Salts; Gibco, Grand Island, N.Y.) supplemented with 10% heat treated fetal calf serum, 0.22 mM pyruvate, 5 μg/ml FSH-P (Scherring-Plough Animal Health Corp., Kenilworth, N.J.) and 1 μ/ml estradiol. Ten oocytes were incubated in a 50 μl drop under paraffin oil for 24 hours at 39° C. in 5% CO2 in air humidified atmosphere.
(§1) The cumulus was removed from matured oocytes by vortexing vigorously in 200 μl or TL-HEPES for 3 min. The denuded oocytes were diluted in 3 changes of TL-HEPES to separate the oocytes from the cumulus cells. Where indicated, the oocytes were exposed to 5 μM ionomycin (5 mM stock in DMSO; Calbiochem, La Jolla, Calif.) in TL-HEPES (1 mg/ml fatty acid free BSA) for 4 min. The oocytes were then diluted into TL-HEPES (30 mg/ml fatty acid BSA) for 5 min followed by dilution into TL-HEPES (1 mg/ml Fraction V BSA). The oocytes were then moved to 50 μl drops of embryonic cell development media (U.S. Pat. No. 5,096,822 to Rosenkrans et al., with or without DMAP (1.9 mM) for the indicated times (39° C., 5% CO2 in air). Embryonic cell development media contained 114.6 mM NaCl, 3.1 mM KCl, 5 mM hemi-calcium lactate, 0.4 mM Na pyruvate, 1 mM glutamine, 3 mg/ml fatty acid free BSA, MEM nonessential amino acids and BME amino acids.
Activation was evaluated at times indicated in each experiment. The oocytes were mounted on slides, fixed with acetic acid:alcohol (1:3) and observed with Nomarski optics. Special care was taken in determining if metaphase plates were metaphase II or aberrant metaphase III (Kubiak, 1989). Oocytes that contained a metaphase I or II plate were considered not activated. Oocytes that contained anaphase, telophase or metaphase […] plates or pronuclei were considered to be activated.
Experiment 1 determined the effect of sequential exposure of oocytes to ionomycin and DMAP. One level of ionomycin (5 μM) and DMAP (1.9 mM) was used throughout all studies. The oocytes were cultured for 5 hours after ionomycin incubation with or without DMAP. Control oocytes were cultured in embryonic cell development medium alone. Activation was determined after 5 hours of culture. […]
Experiment 3 was designed to determine the kinetics of activation when oocytes were exposed to ionomycin alone or to ionomycin followed by a 3 hour incubation in DMAP. At the end of the 3 hour incubation, oocytes in DMAP were diluted in TL-HEPES (1 mg/ml Fraction V BSA) and moved to embryonic cell development medium until mounting. A sample of oocytes from both treatments were mounted at 1, 2, 3, 4 and 5 hours after exposure to ionomycin to determine the activation state.
Experiment 4 was designed to determine the time at which DMAP is necessary for parthenogenic activation relative to the exposure to ionomycin. The oocytes were exposed to ionomycin and placed in embryonic cell development medium. At 0, 1, 2, 2.5, 3 and 4 hours after ionomycin exposure, oocytes were placed in embryonic cell development medium+DMAP. At 5 hours post ionomycin exposure, the oocytes were mounted to determine their activation state.

[2] = test system: 20-hours oocytes derived nuclear transfers; assay: Development of 20-hour oocyte derived nuclear transfers (fused after activation); assay type: cell-based, bovine; settings: treatment at 20 hours maturation after enucleation, 4 hours DMAP with or without ionomycin 5 μM 4 min
Experimental: This experiment was conducted under similar conditions as Experiment 6 with the exception that the oocytes were either placed directly in DMAP (young oocytes) or given in ionomycin (5 μM) treatment for 4 minutes plus DMAP treatment immediately after enucleation, i.e., at 20 hours maturation. At the end of the DMAP treatment, approximately 24 hours, embryonic cells were transferred into the oocytes and electrofusion was induced. The concentration of activating chemicals used were the same as those described in Experiment 6. The embryos were placed in maturation medium CR1aa for 6 to 7 days to determine developmental rates to blastocyst stage.

[3] = test system: 42-hour oocyte derived nuclear transfer (NT) embryos; assay: Development of 42-hour oocyte derived nuclear transfer embryos; assay type: cell-based, bovine; settings: 1.9 mM DMAP with room temperature activation (RTC) 2 hours; 140 NTs to culture; 6 to 7 days
Experimental: Bovine oocytes were obtained and placed in maturation media for approximately 20 hours. The cumulus cells were then stripped off the oocytes according to the previously described procedures.
The oocytes were then enucleated according to Prather et al. and placed in CR1aa maturation medium until 40 hours had elapsed. The oocyte were then placed in CR1aa maturation medium with 1.9 mM DMAP for 2 hours and incubated at room temperature activation (RTC) conditions (about 25° C.).
Following incubation, embryonic cells were transferred into the oocytes and the 2 cells were electrically fused together according to the procedures described in Prather et al., with the exception of the step of waiting until 42 hours to activate via RTC (25° C.) and adding DMAP prior to the time of electrofusion. The fused nuclear transfer embryos were then cultured in maturation medium CR1aa for 6 to 7 days to determine developmental rates to the blastocyst stage.

[4] = test system: bovine oocytes matured for 24 hours; assay: Parthenogenic development of activated oocytes (initial cleavage, blastocyst, blastocyst cell number); assay type: cell-based; settings: for Development to Blastocyst (± se): after ionomycin 5 μM, day 7-8 of culture; for cell number in resulting parthenote blastocysts, Good / cell number in resulting parthenote blastocysts, Poor: after ionomycin
Experimental: as §1
In experiments that determined development potential of the parthenotes, activated oocytes were cultured for 7-8 days in embryonic cell development media. On the date after activation, initial cleavage was determined by visual observation. On day 4 of incubation 5% heat treated fetal calf serum was added to each drop. For some experiments, blastocysts were mounted and fixed in acetic acid:alcohol (1:3) and stained with 1% orcein dissolved in 40% acetic acid to determine cell numbers.
Experiments 2a and 2b determined the effect of time of incubation in DMAP on activation and development. In Experiment 2a, oocytes were incubated in DMAP for 15, 30, 60, 150 and 300 minutes. At the end of the incubation time indicated, oocytes were rinsed in TL-HEPES (1 mg/ml Fraction V BSA) and placed into embryonic cell development medium until 5 hours had elapsed. At 5 hours, a subsample of oocytes was removed and mounted to determine activation. The remaining oocytes were returned to the incubator for 7-8 days. Blastocytes on day 7-8 were rated as good or poor and cell number was determined.
Experiment 2b was similar in design except that oocytes were incubated for 2 hours, 3 hours, 4 hours, or 5 hours in DMAP.

[5] = Experiment 3, FIG. 2, time after exposure to ionomycin

`C[C@H](CCC(=O)O)C[C@H](C)C[C@H](C)C(=O)/C=C(\O)[C@H](C)C[C@H](C)C/C=C/[C@@H](C)[C@@H](O)[C@@H](C)[C@@H](O)C[C@@H]1CC[C@@](C)([C@H]2CC[C@@](C)([C@@H](C)O)O2)O1` [Ionomycin, ionomycin] was tested, and the “Activation of oocytes, result in words” value [1] was “activated the oocytes to a high level”, the “Chromosome / pronuclear outcome, result in words” value [1] was “instead of forming pronuclei the chromosomes reassembled into a metaphase plate” and the “Time by which oocytes had resumed meiosis” value [1, 5] was ≤ 1 h. The “Time by which oocytes were arrested in metaphase III” value [1, 5] was 4 to 5 h, the “% Activation” value [1] was 57.8 ± 7.8^b % and the “% Pronuclear formation” value [1] was 8.9 ± 7.3^a %.

In the case of `CN(C)c1ncnc2nc[nH]c12` [DMAP, 6-dimethylaminopurine], the “% Usable” value ([2]; cultured 6 to 7 days) is reported as 0%, the “Development Rate to Blastocyst” value ([2]; cultured 6 to 7 days) is reported as 0% and the “Cleavage Rate” value ([2]; fused after activation) is reported as 4%. The “Activation of oocytes, result in words” value [1] was “did not activate the oocytes”, the “Chromosome / pronuclear outcome, result in words” value [1] was “caused the chromosomes to form a tight clump in the cytoplasm” and the “Effect of interval from ionomycin treatment to exposure to DMAP, result in words” value ([1]; Experiment 4, FIG. 3, interval more than 1 hour, mounted 5 hours post ionomycin) was “increase in ability to resume meiosis”. The “% Activation” value [1] was 7.8 ± 5.5^a %, the “% Pronuclear formation” value [1] was 7.8 ± 5.5^a % and the “Number Blastocyst” value [3] was 40. The “Number Blastocyst, percent” value [3] was 29%, the “Number Usable Blastocyst” value [3] was 18 and the “Number Usable Blastocyst, percent” value [3] was 13%. The “Development to Blastocyst (± se)” value ([4]; Experiment 2b, DMAP incubation 0 h (ionomycin alone)) was 0^a %, the “Development to Blastocyst (± se)” value ([4]; 6-DMAP 1.9 mM incubation 15 min) was 0^a % and the “Development to Blastocyst (± se)” value ([4]; 6-DMAP 1.9 mM incubation 30 min) was 0^a %. For the same compound, the “Development to Blastocyst (± se)” value ([4]; 6-DMAP incubation 0 min (ionomycin alone)) was 0^a %, the “cell number in resulting parthenote blastocysts, Good” value (“cell number … Good” below) ([4]; DMAP incubation 2 h) was 88.7 and the “cell number … Good” value ([4]; DMAP incubation 3 h) was 70.1. For the same compound, the “cell number in resulting parthenote blastocysts, Poor” value (“cell number … Poor” below) ([4]; DMAP incubation 3 h) was 33.1, the “cell number … Good” value ([4]; DMAP incubation 4 h) was 73.6 and the “cell number … Poor” value ([4]; DMAP incubation 4 h) was 40.1. The “cell number … Good” value ([4]; DMAP incubation 5 h) was 83.7 and the “cell number … Poor” value ([4]; DMAP incubation 5 h) was 44.
